Measured values reported in ChEMBL document CHEMBL1154856, “Leuconicines A-G and (-)-eburnamaline, biologically active strychnan and eburnan alkaloids from Leuconotis” (J Nat Prod, 2009).

Assays:
Type in all cases: functional, cell-based
KB = assay: Cytotoxicity against vincristine-sensitive human KB cells
[1] = Cytotoxicity against vincristine-resistant human KB/VJ300 cells in presence of 0.1 ug/ml vincristine
[2] = Cytotoxicity against vincristine-resistant human KB/VJ300 cells in presence of 0.121 uM vincristine
[3] = Cytotoxicity against vincristine-resistant human KB/VJ300 cells

Structure (SMILES)	IC50 (KB) [µg/mL]	IC50 [1] [µg/mL]	IC50 [2] [µM]	IC50 [3] [µg/mL]
CC[C@@H]1CN2CC[C@]34c5ccccc5-n5c3c(cc(C(N)=O)c5=O)[C@H]1C[C@H]24 [LEUCONICINE A]	> 25	2.57	7.12	> 25
CCC1=CN2CC[C@]34c5ccccc5-n5c3c(cc(C(=O)OC)c5=O)[C@H]1C[C@H]24 [MELODININE B]	> 25	4.62	12.3	> 25
CC[C@@]12CCCN3CCc4c(n(c5ccccc45)[C@H](O)[C@@H]1O)[C@H]32	> 25	> 25	–	> 25
CC[C@@H]1C[N+]2([O-])CC[C@]34c5ccccc5-n5c3c(cc(C(N)=O)c5=O)[C@H]1C[C@@H]42 (some centres undefined) [LEUCONICINE F]	> 25	> 25	–	> 25
CCC1=CN2CC[C@]34c5ccccc5-n5c3c(cc(C(N)=O)c5=O)[C@H]1C[C@H]24 [LEUCONICINE C]	> 25	3.86	10.8	> 25
CCC1=CN2CC[C@]34c5ccccc5-n5c3c(cc(C(=O)O)c5=O)[C@H]1C[C@H]24 [LEUCONICINE E]	> 25	13.5	37.6	> 25
CC[C@@H]1C[N+]2([O-])CC[C@]34c5ccccc5-n5c3c(cc(C(=O)OC)c5=O)[C@H]1C[C@@H]42 (some centres undefined) [LEUCONICINE G]	> 25	> 25	–	> 25
CC[C@@H]1CN2CC[C@]34c5ccccc5-n5c3c(cc(C(=O)OC)c5=O)[C@H]1C[C@H]24 [LEUCONICINE B]	> 25	1.98	5.27	> 25
